“And” between values parts separate entries of the source, which are not always exact repeats. Equal entries are not always repeated.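 Tested at 5 concentrations; 48 h exposure; 96-well plates; endpoints linearly interpolated, else capped at highest concentration. The concentration for full growth arrest is given as TGI.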
Tests used:
Experiment in all cases: NCI-60 cell line screen, 48 h
MDA-MB-435 = test system: MDA-MB-435
UACC-62 melanoma = test system: UACC-62 melanoma
SF-295 CNS = test system: SF-295 CNS
A549 NSCLC = test system: A549 NSCLC
NCI-H226 lung = test system: NCI-H226 lung
M14 melanoma = test system: M14 melanoma
DU-145 prostate = test system: DU-145 prostate
COLO 205 colon = test system: COLO 205 colon
OVCAR-4 ovarian = test system: OVCAR-4 ovarian
HCT-116 colon = test system: HCT-116 colon
NCI-H23 lung = test system: NCI-H23 lung
NCI-H460 lung = test system: NCI-H460 lung
OVCAR-8 ovarian = test system: OVCAR-8 ovarian
ACHN renal = test system: ACHN renal
HT29 colon = test system: HT29 colon
SK-MEL-5 melanoma = test system: SK-MEL-5 melanoma
MOLT-4 leukemia = test system: MOLT-4 leukemia
OVCAR-3 ovarian = test system: OVCAR-3 ovarian
HCT-15 colon = test system: HCT-15 colon

Compound	TGI (MDA-MB-435)	TGI (UACC-62 melanoma)	TGI (SF-295 CNS)	TGI (A549 NSCLC)	TGI (NCI-H226 lung)	TGI (M14 melanoma)	TGI (DU-145 prostate)	TGI (COLO 205 colon)	TGI (OVCAR-4 ovarian)	TGI (HCT-116 colon)	TGI (NCI-H23 lung)	TGI (NCI-H460 lung)	TGI (OVCAR-8 ovarian)	TGI (ACHN renal)	TGI (HT29 colon)	TGI (SK-MEL-5 melanoma)	TGI (MOLT-4 leukemia)	TGI (OVCAR-3 ovarian)	TGI (HCT-15 colon)
O=C(CC(=O)N1N=C(N(c2ccccc2)c2ccccc2)CC1c1ccccc1)Nc1ccccc1 (centres undefined)	> 100 µM	> 100 µM	> 100 µM	> 100 µM	> 100 µM	> 100 µM	> 100 µM	> 100 µM	> 100 µM	> 100 µM	> 100 µM	> 100 µM	> 100 µM	> 100 µM	> 100 µM	> 100 µM	> 100 µM	> 100 µM	> 100 µM
COc1ccc(-n2sc3ncc([N+](=O)[O-])cc3c2=O)cc1	> 100 µM	> 100 µM	> 100 µM	> 100 µM	> 100 µM	> 100 µM	> 100 µM	> 100 µM	> 100 µM	> 100 µM	> 100 µM	> 100 µM	> 100 µM	> 100 µM	> 100 µM	> 100 µM	> 100 µM	> 100 µM	> 100 µM
COc1cccc(Nc2nc(N)nc(N)c2N=O)c1	39.9 µM	38.8 µM	76.6 µM	> 100 µM	90.9 µM	86.6 µM	36.7 µM	51.9 µM	78.5 µM	38.2 µM	31.5 µM	29.1 µM	40.9 µM	89 µM	75.3 µM	39.1 µM	41.8 µM	> 100 µM	47 µM
CN(C)CCCN1c2ccccc2CCc2cc([N+](=O)[O-])ccc21	48.4 µM and 31.1 µM	29.2 µM and 27.5 µM	45.1 µM and 28.4 µM	70.2 µM and 37.7 µM	68 µM and 32.6 µM	38.1 µM and 31.1 µM	58.9 µM and 34.6 µM	60.1 µM and 32.4 µM	69.5 µM and 40.5 µM	41 µM and 29.7 µM	54.1 µM and 36.7 µM	41.7 µM and 29.8 µM	71.8 µM and 30 µM	90.4 µM and 30 µM	41.6 µM and 32.8 µM	31.2 µM and 25.7 µM	> 100 µM and 35.9 µM	48.4 µM and 34.8 µM	83.3 µM and 37.4 µM
OC(CC(O)(C(F)(F)F)C(F)(F)F)C(O)c1ccco1 (centres undefined)	> 10 µM	> 10 µM	> 10 µM	> 10 µM	> 10 µM	> 10 µM	> 10 µM	> 10 µM	> 10 µM	> 10 µM	> 10 µM	> 10 µM	> 10 µM	> 10 µM	> 10 µM	> 10 µM	> 10 µM	> 10 µM	> 10 µM
C=CCC1C(=O)Nc2cccc3ncn(c23)C1=O (centres undefined)	> 100 µM	> 100 µM	> 100 µM	> 100 µM	> 100 µM	> 100 µM	> 100 µM	> 100 µM	> 100 µM	> 100 µM	> 100 µM	> 100 µM	> 100 µM	> 100 µM	> 100 µM	> 100 µM	> 100 µM	> 100 µM	> 100 µM
